In patent US8754073B2, “Substituted piperazino-dihydrothienopyrimidines” (Boehringer Ingelheim International GmbH, priority 2007, dated 2014):

molecular target: PDE4B (Homo sapiens, UniProt Q07343); test: Scintillation Proximity Assay (SPA) of PDE4B enzyme activity ([H3]-cAMP cleavage); assay type: biochemical; details: test substance 1 μM; one-hour incubation of [H3]-cAMP with PDE4B enzyme at 30° C.
Method: The inhibitions (in %) at 1 μM of the individual Example substances are given in the following Table of Examples and were determined as follows:
The Scintillation Proximity Assay (SPA) (GE Healthcare, No. TRKQ7090) was carried out by using the different affinities of cyclic 3′-5′-adenosinemonophosphate (cAMP, low affinity) and linear 5′-adenosinemonophosphate (AMP, high affinity) for yttrium silicate scintillator beads. The cAMP specific phosphodiesterase (PDE) PDE4B cleaves the 3′-phosphoester bond of tritium-labelled [H3]-cAMP to form [H3]-5′-AMP. This [H3]-AMP accumulates on the scintillator beads because of its higher affinity for them and causes scintillation events (flashes of light) which are measured in a Wallac Microbeta Scintillation Counter.
The experiment starts with a one-hour incubation of [H3]-cAMP with the PDE4B enzyme in assay buffer at 30° C., in each case once with the Example substance to be tested (in a concentration of 1 μM) and once without the Example substance to be tested.
After this incubation, the reaction is stopped by the addition of the beads. The beads have an opportunity to settle in the next 45 minutes, then the measurement is carried out in the Scintillation Counter. If the substance is capable of inhibiting the enzymatic activity of the PDE4B, less [H3]-AMP is produced during the incubation phase and fewer scintillation events can be measured.

Chain of PDE4B (Q07343 whole entry, species assumed): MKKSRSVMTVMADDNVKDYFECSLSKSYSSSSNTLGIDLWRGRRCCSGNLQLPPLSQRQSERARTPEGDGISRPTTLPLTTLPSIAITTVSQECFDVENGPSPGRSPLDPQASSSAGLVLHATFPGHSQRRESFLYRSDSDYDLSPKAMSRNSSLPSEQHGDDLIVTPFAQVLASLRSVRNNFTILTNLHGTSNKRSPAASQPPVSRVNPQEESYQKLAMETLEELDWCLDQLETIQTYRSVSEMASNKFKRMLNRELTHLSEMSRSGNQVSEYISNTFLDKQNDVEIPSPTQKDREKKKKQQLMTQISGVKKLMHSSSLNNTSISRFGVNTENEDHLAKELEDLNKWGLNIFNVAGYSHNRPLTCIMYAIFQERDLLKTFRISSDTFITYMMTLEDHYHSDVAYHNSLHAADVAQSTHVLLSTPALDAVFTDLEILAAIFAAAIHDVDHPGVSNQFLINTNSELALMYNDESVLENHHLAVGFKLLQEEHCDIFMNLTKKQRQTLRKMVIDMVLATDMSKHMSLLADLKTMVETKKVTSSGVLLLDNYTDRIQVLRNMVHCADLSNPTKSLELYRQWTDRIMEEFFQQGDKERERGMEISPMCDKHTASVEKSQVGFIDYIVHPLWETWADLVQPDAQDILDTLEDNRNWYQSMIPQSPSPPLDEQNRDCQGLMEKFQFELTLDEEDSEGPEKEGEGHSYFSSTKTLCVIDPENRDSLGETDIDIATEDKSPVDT

Row | SMILES | inhibition at 1 µM
1 | [O-][S+]1CCc2nc(N3CCC(c4noc5ccccc45)CC3)nc(NC3CCOCC3)c21 (stereo not shown) [Example 60] | 97%
2 | CC(C)[C@H](CO)Nc1nc(N2CCC(c3cc4ccccc4o3)CC2)nc2c1[S+]([O-])CC2 (stereo partly shown) [Example 157] | 96%
3 | COC(=O)c1cccc(C2CCN(c3nc4c(c(Nc5cccc(F)c5)n3)[S+]([O-])CC4)CC2)c1 (stereo not shown) [Example 135] | 96%
4 | [O-][S+]1CCc2nc(N3CCC(c4ccc(F)cc4)CC3)nc(NC3(CO)CC3)c21 (stereo not shown) [Example 11] | 94%
5 | O=S1(=O)CCc2nc(N3CCC(c4ccc(Cl)cc4)CC3)nc(NC3(CO)CC3)c21 [Example 333, (1-{2-[4-(4-chlorophenyl)-piperidin-1-yl]-5.5-dioxo-6,7-dihydro-5H-5λ^6-thieno[3,2-d]pyrimidin-4-ylamino}-cyclopropyl)-methanol] | 56%
6 | [O-][S+]1CCc2nc(N3CCC(c4c[nH]cn4)CC3)nc(Nc3cccc(F)c3)c21 (stereo not shown) [Example 72] | 95%
7 | [O-][S+]1CCc2nc(N3CCC(c4nc5ccccc5o4)CC3)nc(NC3CCOCC3)c21 (stereo not shown) [Example 99, [2-(4-Benzoxazol-2-Yl-Piperidin-1-Yl)-5-Oxo-6,7-Dihydro-5H-5λ^4-Thieno[3,2-d]Pyrimidin-4-Yl]-(Tetrahydropyran-4-Yl)-Amine] | 97%
8 | [O-][S+]1CCc2nc(N3CCC(c4noc5ccc(F)cc45)CC3)nc(Nc3cccc(F)c3)c21 (stereo not shown) [Example 137] | 95%
9 | [O-][S+]1CCc2nc(N3CCC(c4cc(Cl)cc(Cl)c4)CC3)nc(NC3CCOCC3)c21 (stereo not shown) [Example 97, {2-[4-(3,5-Dichlorophenyl)-Piperidin-1-Yl]-5-Oxo-6,7-Dihydro-5H-5λ^4-Thieno[3,2-d]Pyrimidin-4-Yl}-(Tetrahydropyran-4-Yl)-Amine] | 93%
10 | CC(C)[C@H](CO)Nc1nc(N2CCC(O)(c3cc(F)cc(F)c3)CC2)nc2c1[S+]([O-])CC2 (stereo partly shown) [Example 18] | 92%
11 | [O-][S+]1CCc2nc(N3CCC(c4noc5ccccc45)CC3)nc(Nc3cccc(F)c3)c21 (stereo not shown) [Example 75, [2-(4-Benzo[d]Isoxazol-3-Yl-Piperidin-1-Yl)-5-Oxo-6,7-6,7-Dihydro-5H-5λ^4-Thieno[3,2-d]Pyrimidin-4-Yl]-(3-Fluorophenyl)-Amine] | 97%
12 | [O-][S+]1CCc2nc(N3CCC(c4cc5ccccc5o4)CC3)nc(NC3(CO)CC3)c21 (stereo not shown) [Example 110] | 97%
13 | COc1ccc(C2CCN(c3nc4c(c(NC5(CO)CC5)n3)[S+]([O-])CC4)CC2)cc1 (stereo not shown) [Example 101] | 94%
14 | [O-][S+]1CCc2nc(N3CCC(c4c[nH]c5ccccc45)CC3)nc(Nc3cccc(F)c3)c21 (stereo not shown) [Example 71] | 96%
15 | [O-][S+]1CCc2nc(N3CCC(c4nnc5ccccn45)CC3)nc(Nc3cccc(F)c3)c21 (stereo not shown) [Example 139] | 94%
16 | [O-][S+]1CCc2nc(N3CCC(c4c[nH]cn4)CC3)nc(NC3CCOCC3)c21 (stereo not shown) [Example 57] | 86%
17 | CC(C)[C@H](CO)Nc1nc(N2CCC(c3noc4ccccc34)CC2)nc2c1[S+]([O-])CC2 (stereo partly drawn) [Example 16, (R)-2-[2-(4-Benzo[d]Isoxazol-3-Yl-Piperidin-1-Yl)-5-Oxo-6,7-Dihydro-5H-5λ^4-Thieno[3,2-d]Pyrimidin-4-Ylamino]-3-Methylbutan-1-Ol] | 96%
18 | [O-][S+]1CCc2nc(N3CCC(O)(c4cc(F)cc(F)c4)CC3)nc(NC3CCOCC3)c21 (stereo not shown) [Example 62] | 96%
19 | CC(C)[C@H](CO)Nc1nc(N2CCC(c3noc4ccc(F)cc34)CC2)nc2c1[S+]([O-])CC2 (stereo partly shown) [Example 153] | 95%
20 | CC(C)[C@H](CO)Nc1nc(N2CCC3(CC2)CN(S(C)(=O)=O)c2ccccc23)nc2c1[S+]([O-])CC2 (stereo partly shown) [Example 15] | 67%
21 | [O-][S+]1CCc2nc(N3CCC(c4cc5ccccc5o4)CC3)nc(Nc3cccc(F)c3)c21 (stereo not shown) [Example 141] | 97%
22 | CC(C)c1noc(C2CCN(c3nc4c(c(NC5CCOCC5)n3)[S+]([O-])CC4)CC2)n1 (stereo not shown) [Example 129] | 93%

The next lines start with the values.

Row | inhibition at 1 µM | SMILES
23 | 94% | CN1C[C@@H](Nc2nc(N3CCC(c4ccc(Cl)cc4)CC3)nc3c2[S+]([O-])CC3)CCC1=O (stereo partly drawn) [Example 5, (S)-5-{2-[4-(4-chlorophenyl)-piperidin-1-yl]-5-oxo-6,7-dihydro-5H-5λ^4-thieno[3,2-d]pyrimidin-4-ylamino}-1-methylpiperidin-2-one]
24 | 94% | [O-][S+]1CCc2nc(N3CCC(c4ccc(Cl)cc4)CC3)nc(NC3CCOCC3)c21 (stereo not shown) [Example 6, {2-[4-(4-chlorophenyl)-piperidin-1-yl]-5-oxo-6,7-dihydro-5H-5λ^4-thieno[3,2-d]pyrimidin-4-yl}-(tetrahydropyran-4-yl)-amine]
25 | 95% | COC(=O)c1ccc(C2CCN(c3nc4c(c(NC5CCOCC5)n3)[S+]([O-])CC4)CC2)cc1 (stereo not shown) [Example 119]
26 | 94% | [O-][S+]1CCc2nc(N3CCC(c4ccc(Br)cc4)CC3)nc(NC3CCOCC3)c21 (stereo not shown) [Example 93, {2-[4-(4-Bromophenyl)-Piperidin-1-Yl]-5-Oxo-6,7-Dihydro-5H-5λ^4-Thieno[3,2-d]Pyrimidine-4-Yl}-(Tetrahydropyran-4-Yl)-Amine]

same assay, conditions: test substance 1 μM; one-hour incubation with [H3]-cAMP at 30° C.

Row | SMILES | inhibition at 1 µM
27 | COCC(=O)NCC1(c2ccccc2)CCN(c2nc3c(c(NC4CCOCC4)n2)[S+]([O-])CC3)CC1 (stereo not shown) [Example 217] | 88%
28 | Cc1nn(C)cc1CNC(=O)c1ccc(C2CCN(c3nc4c(c(NC5CCOCC5)n3)[S+]([O-])CC4)CC2)cc1 (stereo not shown) [Example 262] | 94%
29 | Cc1nn(C)cc1C(C)NC(=O)c1cccc(C2CCN(c3nc4c(c(NC5CCOCC5)n3)[S+]([O-])CC4)CC2)c1 (stereo not shown) [Example 251] | 90%
30 | [O-][S+]1CCc2nc(N3CCC(c4nnc(-c5ccccc5)o4)CC3)nc(NC3CCOCC3)c21 (stereo not shown) [Example 317] | 95%
31 | [O-][S+]1CCc2nc(N3CCC(c4nc5c(o4)CCCC5)CC3)nc(NC3(CO)CC3)c21 (stereo not shown) [Example 328] | 93%
32 | COC1(c2ccc(Cl)cc2)CCN(c2nc3c(c(Nc4cccc(F)c4)n2)[S+]([O-])CC3)CC1 (stereo not shown) [Example 316] | 92%
33 | [O-][S+]1CCc2nc(N3CCC(c4nc(-c5ccccc5)no4)CC3)nc(NC3CCOCC3)c21 (stereo not shown) [Example 312] | 92%

Continued, values first:

Row | inhibition at 1 µM | SMILES
34 | 97% | CN1C[C@@H](Nc2nc(N3CCC(c4nc(-c5ccncc5)no4)CC3)nc3c2[S+]([O-])CC3)CCC1=O (stereo partly shown) [Example 188]
35 | 95% | CC(C)c1ccccc1OC1CCN(c2nc3c(c(N[C@H]4CCC(=O)N(C)C4)n2)[S+]([O-])CC3)CC1 (stereo partly shown) [Example 266]
36 | 96% | CN1C[C@@H](Nc2nc(N3CCC(Oc4ccc(C5=NCCO5)cc4)CC3)nc3c2[S+]([O-])CC3)CCC1=O (stereo partly shown) [Example 199]
37 | 94% | Cc1nn(C)cc1CNC(=O)c1ccc(OC2CCN(c3nc4c(c(NC5CCOCC5)n3)[S+]([O-])CC4)CC2)cc1 (stereo not shown) [Example 263]
38 | 89% | [O-][S+]1CCc2nc(N3CCC(O)(c4ccc(Cl)cc4)CC3)nc(NC3CCOCC3)c21 (stereo not shown) [Example 288]
39 | 92% | CN1C[C@@H](Nc2nc(N3CCC(O)(c4ccc(Cl)cc4)CC3)nc3c2[S+]([O-])CC3)CCC1=O (stereo partly shown) [Example 254]
40 | 95% | O=C(c1ccc(OC2CCN(c3nc4c(c(NC5CCOCC5)n3)[S+]([O-])CC4)CC2)cc1)N(C1CCOCC1)C1CC1 (stereo not shown) [Example 238]
41 | 94% | CN(C(=O)c1ccc(OC2CCN(c3nc4c(c(NC5CCOCC5)n3)[S+]([O-])CC4)CC2)cc1)C1CC1 (stereo not shown) [Example 242, N-Cyclopropyl-N-Methyl-4-{1-[5-Oxo-4-(Tetrahydropyran-4-Ylamino)-6,7-Dihydro-5H-5λ^4-Thieno[3,2-d]Pyrimidin-2-Yl]-Piperidin-4-Yloxy}-Benzamide]
42 | 94% | O=C(C1CC1)N1CCc2ccc(OC3CCN(c4nc5c(c(NC6CCOCC6)n4)[S+]([O-])CC5)CC3)cc2CC1 (stereo not shown) [Example 214, cyclopropyl-(7-{1-[5-oxo-4-(tetrahydropyran-4-ylamino)-6,7-dihydro-5H-5λ^4-thieno[3,2-d]pyrimidin-2-yl]-piperidin-4-yloxy}-1,2,4,5-tetrahydrobenzo[d]azepin-3-yl)-methanone]
43 | 91% | [O-][S+]1CCc2nc(N3CCC(Oc4ccc5c(c4)CCNCC5)CC3)nc(NC3CCOCC3)c21 (stereo not shown) [Example 183, (5-Oxo-2-[4-(2,3,4,5-Tetrahydro-1H-Benzo[d]Azepin-7-Yloxy)-Piperidin-1-Yl]-6,7-Dihydro-5H-5λ^4-Thieno[3,2-d]Pyrimidin-4-Yl)-(Tetrahydropyran-4-Yl)-Amine]
44 | 89% | CN1C[C@@H](Nc2nc(N3CCC(Oc4ccc(Cl)cc4)CC3)nc3c2[S+]([O-])CC3)CCC1=O (stereo partly shown) [Example 265]
45 | 96% | CN1CCc2ccc(OC3CCN(c4nc5c(c(NC6CCOCC6)n4)[S+]([O-])CC5)CC3)cc2CC1 (stereo not shown) [Example 186, (2-[4-(3-Methyl-2,3,4,5-Tetrahydro-1H-Benzo[d]Azepin-7-Yloxy)-Piperidin-1-Yl]-5-Oxo-6,7-Dihydro-5H-5λ^4-Thieno[3,2-d]Pyrimidin-4-Yl)-(Tetrahydropyran-4-Yl)-Amine]
46 | 89% | [O-][S+]1CCc2nc(N3CCC(Oc4ccc(F)c(F)c4)CC3)nc(NC3CCOCC3)c21 (stereo not shown) [Example 175]
